{"source": "patent US11033527B2", "about": "“Non-hormonal treatment of the genitourinary syndrome of menopause” (IMMUGEN PHARMA LLC, priority 2018, dated 2021)", "key": {"vaginal tissue construct": {"system": "vaginal tissue construct", "test": "microarray analysis of differential gene expression (Affymetrix Human Gene 1.0 ST arrays), tissues treated for seven days via culture medium", "format": "cell-based", "excerpt": "The data from the Affymetrix Human Gene 1.0 ST arrays were normalized using the Robust Multiarray Average (RMA) algorithm and a Chip Definition File (CDF) that maps the probes on the array to unique Entrez Gene identifiers. The result is a matrix in which each column corresponds to a sample. The expression values are log 2-transformed by default.\nBy using a fold change >1.5, an analysis of differentially expressed genes was done to identify those genes which were involved in the cornified envelope, keratinocyte differentiation, cell differentiation, epidermis development, epithelial cell differentiation, junctional proteins and signaling, immune response and innate immune response."}, "[1]": {"molecular_target": "endocannabinoid receptor type 2 (CB2) (Homo sapiens, UniProt P34972)", "sequence (P34972 whole entry, species assumed)": "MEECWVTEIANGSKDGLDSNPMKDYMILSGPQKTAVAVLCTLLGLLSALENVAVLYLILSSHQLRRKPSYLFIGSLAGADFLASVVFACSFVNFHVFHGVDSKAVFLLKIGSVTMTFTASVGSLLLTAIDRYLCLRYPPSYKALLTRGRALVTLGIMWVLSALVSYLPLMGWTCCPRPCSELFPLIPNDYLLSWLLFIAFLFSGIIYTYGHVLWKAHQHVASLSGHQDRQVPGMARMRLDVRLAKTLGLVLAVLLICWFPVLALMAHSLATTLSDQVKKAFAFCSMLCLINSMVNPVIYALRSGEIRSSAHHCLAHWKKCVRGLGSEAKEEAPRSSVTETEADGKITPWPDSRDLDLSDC", "conditions": "cited from earlier work"}}, "note": "Where “and” joins values, the source holds several entries; their conditions need not be identical. Identical values can stand only once."}
{"compound": "CCCCCCC(C)(C)c1cc(OC)c2c(c1)OC(C)(C)[C@@H]1CC=C(C)C[C@@H]21", "note": "[L759,633]", "values": [{"measurement": "IL36A Expr Fold Change", "setting": "vaginal tissue construct; gene interleukin 36 alpha", "value": 4.185, "unit": "fold"}, {"measurement": "IL36RN Expr Fold Change", "setting": "vaginal tissue construct; gene interleukin 36 receptor antagonist", "value": 4.668, "unit": "fold"}, {"measurement": "KLK6 Fold Change", "setting": "vaginal tissue construct; gene kallikrein related peptidase 6", "value": 4.651, "unit": "fold"}, {"measurement": "KLK8 Fold Change", "setting": "vaginal tissue construct; gene kallikrein related peptidase 8", "value": 1.842, "unit": "fold"}, {"measurement": "KLK10 Fold Change", "setting": "vaginal tissue construct; gene kallikrein related peptidase 10", "value": 2.554, "unit": "fold"}, {"measurement": "KLK12 Fold Change", "setting": "vaginal tissue construct; gene kallikrein related peptidase 12", "value": 3.933, "unit": "fold"}, {"measurement": "KLK13 Fold Change", "setting": "vaginal tissue construct; gene kallikrein related peptidase 13", "value": 3.957, "unit": "fold"}, {"measurement": "KRT1 Fold Change", "setting": "vaginal tissue construct; gene keratin 1", "value": "10.739 fold and 10.5 fold"}, {"measurement": "KRT2 Fold Change", "setting": "vaginal tissue construct; gene keratin 2", "value": 1.801, "unit": "fold"}, {"measurement": "KRT20 Fold Change", "setting": "vaginal tissue construct; gene keratin 20", "value": "−3.42", "unit": "fold"}, {"measurement": "KRT23 Fold Change", "setting": "vaginal tissue construct; gene keratin 23", "value": 1.912, "unit": "fold"}, {"measurement": "KRT24 Fold Change", "setting": "vaginal tissue construct; gene keratin 24", "value": 1.619, "unit": "fold"}, {"measurement": "KRTDAP Fold Change", "setting": "vaginal tissue construct; gene keratinocyte differentiation associated protein", "value": "15.751 fold and 15.7 fold"}, {"measurement": "LCE1A Fold Change", "setting": "vaginal tissue construct; gene late cornified envelope 1A", "value": 1.884, "unit": "fold"}, {"measurement": "LCE1C Fold Change", "setting": "vaginal tissue construct; gene late cornified envelope 1C", "value": 4.063, "unit": "fold"}, {"measurement": "LCE1F Fold Change", "setting": "vaginal tissue construct; gene late cornified envelope 1F", "value": 1.593, "unit": "fold"}, {"measurement": "LCE2A Fold Change", "setting": "vaginal tissue construct; gene late cornified envelope 2A", "value": 6.392, "unit": "fold"}, {"measurement": "LCE2B Fold Change", "setting": "vaginal tissue construct; gene late cornified envelope 2B", "value": 11.182, "unit": "fold"}, {"measurement": "LCE2C/LCE2D Fold Change", "setting": "vaginal tissue construct; gene late cornified envelope 2D", "value": 24.247, "unit": "fold"}, {"measurement": "LCE3D Fold Change", "setting": "vaginal tissue construct; gene late cornified envelope 3D", "value": 15.6, "unit": "fold"}, {"measurement": "LCE3E Fold Change", "setting": "vaginal tissue construct; gene late cornified envelope 3E", "value": 16, "unit": "fold"}, {"measurement": "LCE5A Fold Change", "setting": "vaginal tissue construct; gene late cornified envelope 5A", "value": 1.63, "unit": "fold"}, {"measurement": "LIPM Fold Change", "setting": "vaginal tissue construct; gene lipase family member M", "value": 11.426, "unit": "fold"}, {"measurement": "LIPN Fold Change", "setting": "vaginal tissue construct; gene lipase family member N", "value": 7.346, "unit": "fold"}, {"measurement": "LIPN1 Fold Change", "setting": "vaginal tissue construct; gene lipin 1", "value": 3.775, "unit": "fold"}, {"measurement": "LOR Fold Change", "setting": "vaginal tissue construct; gene loricrin", "value": 7.932, "unit": "fold"}, {"measurement": "LY6G6C Expr Fold Change", "setting": "vaginal tissue construct; gene lymphocyte antigen 6 family member G6C", "value": 6.538, "unit": "fold"}, {"measurement": "HLA-C Expr Fold Change", "setting": "vaginal tissue construct; gene major histocompatibility complex, class C", "value": "−1.691", "unit": "fold"}, {"measurement": "HLA-B Expr Fold Change", "setting": "vaginal tissue construct; gene major histocompatibility complex, class I, B", "value": "−2.168", "unit": "fold"}, {"measurement": "HLA-DMB Expr Fold Change", "setting": "vaginal tissue construct; gene major histocompatibility complex, class II, DM beta", "value": "−1.591", "unit": "fold"}, {"measurement": "HLA-DPA1 Expr Fold Change", "setting": "vaginal tissue construct; gene major histocompatibility complex, class II, DP alpha 1", "value": "−1.7", "unit": "fold"}, {"measurement": "HLA-DRA Expr Fold Change", "setting": "vaginal tissue construct; gene major histocompatibility complex, class II, DR alpha", "value": "−2.792", "unit": "fold"}, {"measurement": "HLA-DRB6 Expr Fold Change", "setting": "vaginal tissue construct; gene major histocompatibility complex, class II, DR beta 6 (pseudogene)", "value": "−2.7", "unit": "fold"}, {"measurement": "ME1 Fold Change", "setting": "vaginal tissue construct; gene malic enzyme 1, NADP(+)-dependent cytosolic", "value": 2.9, "unit": "fold"}, {"measurement": "MUCL1 Fold Change", "setting": "vaginal tissue construct; gene mucin like 1", "value": "~2 fold and 1.964 fold"}, {"measurement": "NCR3LG1 Expr Fold Change", "setting": "vaginal tissue construct; gene natural killer cell cytotoxicity receptor 3 ligand 1", "value": 2.482, "unit": "fold"}, {"measurement": "NFAT5 Expr Fold Change", "setting": "vaginal tissue construct; gene nuclear factor of activated T cells 5", "value": 2.265, "unit": "fold"}, {"measurement": "OLFM4 Expr Fold Change", "setting": "vaginal tissue construct; gene olfactomedin 4", "value": "−6.772", "unit": "fold"}, {"measurement": "PNLIPRP3 Fold Change", "setting": "vaginal tissue construct; gene pancreatic lipase-related protein 3", "value": 1.6, "unit": "fold"}, {"measurement": "PLA2G2F Fold Change", "setting": "vaginal tissue construct; gene phospholipase A2 group IIF", "value": 2.054, "unit": "fold"}, {"measurement": "PLA2G3 Fold Change", "setting": "vaginal tissue construct; gene phospholipase A2 group III", "value": 2.218, "unit": "fold"}, {"measurement": "PLA2G4D Fold Change", "setting": "vaginal tissue construct; gene phospholipase A2 group IVD", "value": 3.526, "unit": "fold"}, {"measurement": "PLA2G4E Fold Change", "setting": "vaginal tissue construct; gene phospholipase A2 group IVE", "value": 3.36, "unit": "fold"}, {"measurement": "PLA2G10 Fold Change", "setting": "vaginal tissue construct; gene phospholipase A2 group X", "value": "−3.027", "unit": "fold"}, {"measurement": "PLAC8 Fold Change", "setting": "vaginal tissue construct; gene placenta-specific 8", "value": "−3.3", "unit": "fold"}, {"measurement": "PIGR Fold Change", "setting": "vaginal tissue construct; gene polymeric immunoglobulin receptor", "value": "−2.4", "unit": "fold"}, {"measurement": "PDCD1LG2 Expr Fold Change", "setting": "vaginal tissue construct; gene programmed cell death 1 ligand 2", "value": "−1.74", "unit": "fold"}, {"measurement": "RPS15A Expr Fold Change", "setting": "vaginal tissue construct; gene ribosomal protein S15a", "value": "−1.78", "unit": "fold"}, {"measurement": "SERPINB12 Fold Change", "setting": "vaginal tissue construct; gene serpin family B member 12", "value": "5.202 fold and 5.1 fold"}, {"measurement": "STAT4 Expr Fold Change", "setting": "vaginal tissue construct; gene signal transducer and activator of transcription 4", "value": "−2.518", "unit": "fold"}, {"measurement": "SPRR2G Fold Change", "setting": "vaginal tissue construct; gene small proline rich protein 2G", "value": 10.387, "unit": "fold"}, {"measurement": "SPRR4 Fold Change", "setting": "vaginal tissue construct; gene small proline rich protein 4", "value": 2.619, "unit": "fold"}, {"measurement": "SBSN Fold Change", "setting": "vaginal tissue construct; gene suprabasin", "value": "4.36 fold and 4.3 fold"}, {"measurement": "TLR3 Expr Fold Change", "setting": "vaginal tissue construct; gene toll like receptor 3", "value": "−3.274", "unit": "fold"}, {"measurement": "TRPV3 Fold Change", "setting": "vaginal tissue construct; gene transient receptor potential cation channel subfamily V member 3", "value": "2.8 fold and 2.804 fold"}, {"measurement": "UBA7 Expr Fold Change", "setting": "vaginal tissue construct; gene ubiquitin like modifier activating enzyme 7", "value": "−2.031", "unit": "fold"}, {"measurement": "VEGFA Fold Change", "setting": "vaginal tissue construct; gene vascular endothelial growth factor A", "value": "2.0 fold and 1.885 fold"}, {"measurement": "mir-23 Expr Fold Change", "setting": "vaginal tissue construct; microRNA 23a", "value": 2.823, "unit": "fold"}, {"measurement": "mir-224 Expr Fold Change", "setting": "vaginal tissue construct; microRNA 224", "value": 6.266, "unit": "fold"}, {"measurement": "MMP10 expression", "setting": "vaginal tissue construct; result in words", "value": "downregulated"}, {"measurement": "agonist type by receptor internalization", "setting": "[1]", "value": "partial agonist"}]}
